{
  "source": "the supplement of paper PMC11208160",
  "data": [
    {"experiment": "recombinant UMI read abundance after kanamycin selection (control-corrected) (log10(CPM+1)); higher = more efficient recombination; extreme values may be limits of the assay; sequences stand for … in AGTGCAGAGAAAATCGGCCAGTTTTCTCTGCCTGCAGTCCGCATGCCGTGGGACCCCTTGGGTTCTAACCTGTTGCCTAGATTTATGCAGCGGACTGCCTTTCTCCCAAAGTGATAAACCGG…AGGTTGGTTTCACT; site = the 11-nt donor", "method_in_brief": "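Each donor and donor-binding-loop pair was tracked by a 12-nt UMI on a plasmid carrying a promoterless kanamycin gene. With a second plasmid supplying a fixed target and T7-inducible IS621 bridge recombinase, the pool was plated in Escherichia coli on IPTG (0.07 mM) plus kanamycin or unselected. Sequencing of recombinant UMIs across the donor–target junction gave counts expressed as log10(CPM+1) after replicate averaging and control-derived scaling.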", "values": [
      {"sequence": "GTATGTACATGGACCGGTTTTCCCGGTAATCCGTATTTGTA (site GTATGCACTTA)", "recombinant UMI read abundance (log10)": 1.61},
      {"sequence": "GTATGTACATGGACCGGTTTTCCCGGTAATCCGTATTTGTA (site GTATGGACTTA)", "recombinant UMI read abundance (log10)": 0.499},
      {"sequence": "GTATGTACATGGACCGGTTTTCCCGGTAATCCGTATTTGTA (site GTATGTACTTA)", "recombinant UMI read abundance (log10)": 2.09},
      {"sequence": "GTATGTCCATGGACCGGTTTTCCCGGTAATCCGTATTTGAG (site GTATGTCCTCT)", "recombinant UMI read abundance (log10)": 0.428},
      {"sequence": "GTATTAACATGGACCGGTTTTCCCGGTAATCCGTATTTGTG (site GTATTAACTCA)", "recombinant UMI read abundance (log10)": 2.02},
      {"sequence": "GTCACGCCATGGACCGGTTTTCCCGGTAATCCGTATTTGTA (site GACACGCCTTA)", "recombinant UMI read abundance (log10)": 0.00466},
      {"sequence": "GTCACGCCATGGACCGGTTTTCCCGGTAATCCGTATTTGTA (site GCCACGCCTTA)", "recombinant UMI read abundance (log10)": 0},
      {"sequence": "GTCACGCCATGGACCGGTTTTCCCGGTAATCCGTATTTGTA (site GGCACGCCTTA)", "recombinant UMI read abundance (log10)": 0.00905},
      {"sequence": "GTCACGCCATGGACCGGTTTTCCCGGTAATCCGTATTTGTA (site GTCACGCCTTA)", "recombinant UMI read abundance (log10)": 0.476},
      {"sequence": "GTCACGGCATGGACCGGTTTTCCCGGTAATCCGTATTTGAA (site GTCACGGCTTT)", "recombinant UMI read abundance (log10)": 1.2},
      {"sequence": "GTCACGTCATGGACCGGTTTTCCCGGTAATCCGTATTTGCG (site GTCACGTCTCG)", "recombinant UMI read abundance (log10)": 2.07},
      {"sequence": "GTCAGGACATGGACCGGTTTTCCCGGTAATCCGTATTTGTC (site GTCAGGACTGA)", "recombinant UMI read abundance (log10)": 2.38},
      {"sequence": "GTCATGGCATGGACCGGTTTTCCCGGTAATCCGTATTTGAA (site GTCATGGCTTT)", "recombinant UMI read abundance (log10)": 1.99},
      {"sequence": "GTCCCATCATGGACCGGTTTTCCCGGTAATCCGTATTTGCG (site GTCCCATCTCG)", "recombinant UMI read abundance (log10)": 1.31},
      {"sequence": "GTCCCCACATGGACCGGTTTTCCCGGTAATCCGTATTTGTA (site GTCCCCACTTA)", "recombinant UMI read abundance (log10)": 1.14},
      {"sequence": "GTCCGACCATGGACCGGTTTTCCCGGTAATCCGTATTTGCA (site GTCCGACCTTG)", "recombinant UMI read abundance (log10)": 0},
      {"sequence": "GTCCGAGCATGGACCGGTTTTCCCGGTAATCCGTATTTGCA (site GTACGAGCTTG)", "recombinant UMI read abundance (log10)": 0},
      {"sequence": "GTCCGAGCATGGACCGGTTTTCCCGGTAATCCGTATTTGCA (site GTCCGAGCTTG)", "recombinant UMI read abundance (log10)": 1.59},
      {"sequence": "GTCCGAGCATGGACCGGTTTTCCCGGTAATCCGTATTTGCA (site GTGCGAGCTTG)", "recombinant UMI read abundance (log10)": 0.297},
      {"sequence": "GTCCGAGCATGGACCGGTTTTCCCGGTAATCCGTATTTGCA (site GTTCGAGCTTG)", "recombinant UMI read abundance (log10)": 0},
      {"sequence": "GTCCTGCCATGGACCGGTTTTCCCGGTAATCCGTATTTGGC (site GTCCTGCCTGC)", "recombinant UMI read abundance (log10)": 0},
      {"sequence": "GTCGAATCATGGACCGGTTTTCCCGGTAATCCGTATTTGGT (site GTCGAATCTAC)", "recombinant UMI read abundance (log10)": 2.07},
      {"sequence": "GTCGCCCCATGGACCGGTTTTCCCGGTAATCCGTATTTGGC (site GTCGCCCCTGC)", "recombinant UMI read abundance (log10)": 0},
      {"sequence": "GTCGCGTCATGGACCGGTTTTCCCGGTAATCCGTATTTGGA (site GTCGCGTCTTC)", "recombinant UMI read abundance (log10)": 1.24},
      {"sequence": "GTCGGCCCATGGACCGGTTTTCCCGGTAATCCGTATTTGTG (site GTCGGCCCTCA)", "recombinant UMI read abundance (log10)": 0.00361},
      {"sequence": "GTCGGGGCATGGACCGGTTTTCCCGGTAATCCGTATTTGTT (site GTCGGGGCTAA)", "recombinant UMI read abundance (log10)": 0.949},
      {"sequence": "GTCGTATCATGGACCGGTTTTCCCGGTAATCCGTATTTGTC (site GTCGTATCTGA)", "recombinant UMI read abundance (log10)": 2.7},
      {"sequence": "GTCTAACCATGGACCGGTTTTCCCGGTAATCCGTATTTGTC (site GTCTAACCTGA)", "recombinant UMI read abundance (log10)": 0},
      {"sequence": "GTCTACACATGGACCGGTTTTCCCGGTAATCCGTATTTGAG (site GTCTACACTCT)", "recombinant UMI read abundance (log10)": 0.832},
      {"sequence": "GTCTACACATGGACCGGTTTTCCCGGTAATCCGTATTTGCT (site ATCTACACTAG)", "recombinant UMI read abundance (log10)": 1.33},
      {"sequence": "GTCTACACATGGACCGGTTTTCCCGGTAATCCGTATTTGCT (site CTCTACACTAG)", "recombinant UMI read abundance (log10)": 1.44},
      {"sequence": "GTCTACACATGGACCGGTTTTCCCGGTAATCCGTATTTGCT (site GTCTACACTAG)", "recombinant UMI read abundance (log10)": 2.05},
      {"sequence": "GTCTACACATGGACCGGTTTTCCCGGTAATCCGTATTTGCT (site TTCTACACTAG)", "recombinant UMI read abundance (log10)": 1.44},
      {"sequence": "GTCTAGACATGGACCGGTTTTCCCGGTAATCCGTATTTGCA (site GTCTAGACTTG)", "recombinant UMI read abundance (log10)": 2.13},
      {"sequence": "GTCTGCCCATGGACCGGTTTTCCCGGTAATCCGTATTTGCG (site GTCTGCCCTCG)", "recombinant UMI read abundance (log10)": 0.0315},
      {"sequence": "GTCTTCCCATGGACCGGTTTTCCCGGTAATCCGTATTTGCA (site GTCTTCCCTTG)", "recombinant UMI read abundance (log10)": 0},
      {"sequence": "GTGAAGACATGGACCGGTTTTCCCGGTAATCCGTATTTGCA (site AGGAAGACTTG)", "recombinant UMI read abundance (log10)": 1.26},
      {"sequence": "GTGAAGACATGGACCGGTTTTCCCGGTAATCCGTATTTGCA (site GTGAAGACTTG)", "recombinant UMI read abundance (log10)": 2.72},
      {"sequence": "GTGACAACATGGACCGGTTTTCCCGGTAATCCGTATTTGAC (site GTGACAACTGT)", "recombinant UMI read abundance (log10)": 2.91},
      {"sequence": "GTGACACCATGGACCGGTTTTCCCGGTAATCCGTATTTGTT (site GTGACACCTAA)", "recombinant UMI read abundance (log10)": 0.00775},
      {"sequence": "GTGACCCCATGGACCGGTTTTCCCGGTAATCCGTATTTGCC (site GTGACCCCTGG)", "recombinant UMI read abundance (log10)": 1.83},
      {"sequence": "GTGCAAACATGGACCGGTTTTCCCGGTAATCCGTATTTGTG (site GTGCAAACTCA)", "recombinant UMI read abundance (log10)": 2.04},
      {"sequence": "GTGCATCCATGGACCGGTTTTCCCGGTAATCCGTATTTGCA (site GTGCATCCTTG)", "recombinant UMI read abundance (log10)": 1.03},
      {"sequence": "GTGCATGCATGGACCGGTTTTCCCGGTAATCCGTATTTGGA (site GTGCATGCTAC)", "recombinant UMI read abundance (log10)": 0.00401},
      {"sequence": "GTGCATGCATGGACCGGTTTTCCCGGTAATCCGTATTTGGA (site GTGCATGCTCC)", "recombinant UMI read abundance (log10)": 0.296},
      {"sequence": "GTGCATGCATGGACCGGTTTTCCCGGTAATCCGTATTTGGA (site GTGCATGCTGC)", "recombinant UMI read abundance (log10)": 0},
      {"sequence": "GTGCATGCATGGACCGGTTTTCCCGGTAATCCGTATTTGGA (site GTGCATGCTTC)", "recombinant UMI read abundance (log10)": 1.28},
      {"sequence": "GTGCATGCATGGACCGGTTTTCCCGGTAATCCGTATTTGGC (site GTGCATGCTAC)", "recombinant UMI read abundance (log10)": 0.31},
      {"sequence": "GTGCATGCATGGACCGGTTTTCCCGGTAATCCGTATTTGGC (site GTGCATGCTCC)", "recombinant UMI read abundance (log10)": 0},
      {"sequence": "GTGCATGCATGGACCGGTTTTCCCGGTAATCCGTATTTGGC (site GTGCATGCTGC)", "recombinant UMI read abundance (log10)": 2.28},
      {"sequence": "GTGCATGCATGGACCGGTTTTCCCGGTAATCCGTATTTGGC (site GTGCATGCTTC)", "recombinant UMI read abundance (log10)": 0.89},
      {"sequence": "GTGCATGCATGGACCGGTTTTCCCGGTAATCCGTATTTGGT (site ATGCATGCTAC)", "recombinant UMI read abundance (log10)": 0.986},
      {"sequence": "GTGCATGCATGGACCGGTTTTCCCGGTAATCCGTATTTGGT (site CTGCATGCTAC)", "recombinant UMI read abundance (log10)": 0.457},
      {"sequence": "GTGCATGCATGGACCGGTTTTCCCGGTAATCCGTATTTGGT (site GAGCATGCTAC)", "recombinant UMI read abundance (log10)": 0.0372},
      {"sequence": "GTGCATGCATGGACCGGTTTTCCCGGTAATCCGTATTTGGT (site GCGCATGCTAC)", "recombinant UMI read abundance (log10)": 0.271},
      {"sequence": "GTGCATGCATGGACCGGTTTTCCCGGTAATCCGTATTTGGT (site GGGCATGCTAC)", "recombinant UMI read abundance (log10)": 0.00487},
      {"sequence": "GTGCATGCATGGACCGGTTTTCCCGGTAATCCGTATTTGGT (site GTACATGCTAC)", "recombinant UMI read abundance (log10)": 1.47},
      {"sequence": "GTGCATGCATGGACCGGTTTTCCCGGTAATCCGTATTTGGT (site GTCCATGCTAC)", "recombinant UMI read abundance (log10)": 0.00812},
      {"sequence": "GTGCATGCATGGACCGGTTTTCCCGGTAATCCGTATTTGGT (site GTGAATGCTAC)", "recombinant UMI read abundance (log10)": 0},
      {"sequence": "GTGCATGCATGGACCGGTTTTCCCGGTAATCCGTATTTGGT (site GTGCAAGCTAC)", "recombinant UMI read abundance (log10)": 0.00542},
      {"sequence": "GTGCATGCATGGACCGGTTTTCCCGGTAATCCGTATTTGGT (site GTGCACGCTAC)", "recombinant UMI read abundance (log10)": 0.586},
      {"sequence": "GTGCATGCATGGACCGGTTTTCCCGGTAATCCGTATTTGGT (site GTGCAGGCTAC)", "recombinant UMI read abundance (log10)": 0.384},
      {"sequence": "GTGCATGCATGGACCGGTTTTCCCGGTAATCCGTATTTGGT (site GTGCATACTAC)", "recombinant UMI read abundance (log10)": 1.69},
      {"sequence": "GTGCATGCATGGACCGGTTTTCCCGGTAATCCGTATTTGGT (site GTGCATCCTAC)", "recombinant UMI read abundance (log10)": 0.318},
      {"sequence": "GTGCATGCATGGACCGGTTTTCCCGGTAATCCGTATTTGGT (site GTGCATGCTAA)", "recombinant UMI read abundance (log10)": 0.0107},
      {"sequence": "GTGCATGCATGGACCGGTTTTCCCGGTAATCCGTATTTGGT (site GTGCATGCTAC)", "recombinant UMI read abundance (log10)": 0.978},
      {"sequence": "GTGCATGCATGGACCGGTTTTCCCGGTAATCCGTATTTGGT (site GTGCATGCTAG)", "recombinant UMI read abundance (log10)": 0.442},
      {"sequence": "GTGCATGCATGGACCGGTTTTCCCGGTAATCCGTATTTGGT (site GTGCATGCTAT)", "recombinant UMI read abundance (log10)": 1.47}
    ]}
  ]
}
